From patent publication US20250230165A1, “HETEROCYCLIC COMPOUNDS FOR USE IN THE TREATMENT OF CANCER” (ARTIOS PHARMA LIMITED, priority 2021, published 2025)

Biological target: T1, Human Polθ polymerase domain (aa1820-2590) (Homo sapiens, UniProt O75417)
T1 construct: Human Polθ polymerase domain (aa1820-2590) was expressed in E. coli; made in house; host or cells: E. coli
T1 sequence (O75417 1820-2590): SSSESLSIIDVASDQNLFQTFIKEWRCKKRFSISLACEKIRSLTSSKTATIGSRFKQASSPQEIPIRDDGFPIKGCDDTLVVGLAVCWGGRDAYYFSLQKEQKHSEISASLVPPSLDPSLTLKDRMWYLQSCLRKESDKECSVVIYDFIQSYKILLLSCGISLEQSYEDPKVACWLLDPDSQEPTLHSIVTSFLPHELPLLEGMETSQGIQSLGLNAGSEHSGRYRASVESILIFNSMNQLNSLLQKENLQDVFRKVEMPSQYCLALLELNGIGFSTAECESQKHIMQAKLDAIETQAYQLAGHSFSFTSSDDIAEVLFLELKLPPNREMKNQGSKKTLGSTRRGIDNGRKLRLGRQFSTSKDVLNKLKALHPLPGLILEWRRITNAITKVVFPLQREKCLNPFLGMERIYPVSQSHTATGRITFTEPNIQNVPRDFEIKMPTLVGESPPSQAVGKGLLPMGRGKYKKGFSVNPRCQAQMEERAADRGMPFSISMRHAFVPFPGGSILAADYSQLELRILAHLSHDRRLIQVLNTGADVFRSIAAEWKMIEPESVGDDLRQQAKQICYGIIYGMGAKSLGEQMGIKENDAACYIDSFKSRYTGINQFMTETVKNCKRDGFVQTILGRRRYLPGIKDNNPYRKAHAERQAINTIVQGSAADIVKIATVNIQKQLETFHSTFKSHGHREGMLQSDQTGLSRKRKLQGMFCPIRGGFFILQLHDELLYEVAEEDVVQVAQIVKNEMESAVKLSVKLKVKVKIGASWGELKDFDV
Assay: Polθ Polymerase Domain Kinact/KI Assay (PicoGreen)
Format: biochemical
Conditions: 0.8 nM Polθ, 100 nM DNA substrate, kobs vs [I] fit for 2-step covalent inhibitor
Method in brief: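 PicoGreen fluorescence read-out of primer extension; progress curves per inhibitor concentration fitted for kobs, then kobs vs [I] fitted to a two-step covalent model to give Kinact and KI. Conditions: 0.8 nM enzyme, 100 nM DNA substrate, […].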

SMILES	Kinact/Kl [M⁻¹ s⁻¹]
C=CC(=O)N1CCn2nc(CN3C[C@H]4CC(=O)N(c5cc(C(F)(F)F)cc(C)n5)[C@@H]4C(=O)N(C)c4cccc(F)c43)nc2C1 [Example 133, (3aR,11aS)-5-((7-acryloyl-5,6,7,8-tetrahydro-[1,2,4]triazolo[1,5-a]pyrazin-2-yl)methyl)-6-fluoro-10-methyl-1-(6-methyl-4-(trifluoromethyl)pyridin-2-yl)-1,3a,4,5,10,11a-hexahydro-2H-benzo[b]pyrrolo[2,3-f][1,4]diazocine-2,11(3H)-dione]	1.7e+06
C=CC(=O)N1C[C@H]2CN(CCN3C[C@H]4CC(=O)N(c5cc(C(F)(F)F)cc(C)n5)[C@@H]4C(=O)N(C)c4cccc(F)c43)CCN2[C@H](C)C1 (relative stereo) [Example 64a, (3aR,11aS)-5-(2-((6R/S,9aR/S)-8-acryloyl-6-methyloctahydro-2H-pyrazino[1,2-a]pyrazin-2-yl)ethyl)-6-fluoro-10-methyl-1-(6-methyl-4-(trifluoromethyl)pyridin-2-yl)-1,3a,4,5,10,11a-hexahydro-2H-benzo[b]pyrrolo[2,3-f][1,4]diazocine-2,11(3H)-dione]	2.06e+06
C=CC(=O)N1CC(=O)N2CCN(CCN3C[C@H]4CC(=O)N(c5cc(C(F)(F)F)cc(C)n5)[C@@H]4C(=O)N(C)c4cccc(F)c43)CC2C1 (mixture of isomers) [Example 62b, (3aR,11aS)-5-(2-((S/R)-8-acryloyl-6-oxooctahydro-2H-pyrazino[1,2-a]pyrazin-2-yl)ethyl)-6-fluoro-10-methyl-1-(6-methyl-4-(trifluoromethyl)pyridin-2-yl)-1,3a,4,5,10,11a-hexahydro-2H-benzo[b]pyrrolo[2,3-f][1,4]diazocine-2,11(3H)-dione]	1.26e+06
C=CC(=O)N1Cc2cc(CN3C[C@H]4CC(=O)N(c5cc(C(F)(F)F)cc(C)n5)[C@@H]4C(=O)N(C)c4cccc(Cl)c43)ccc2[C@@H]1CC#N (racemic) [Example 287a, 2-((S/R)-2-acryloyl-5-(((3aR,11aS)-6-chloro-10-methyl-1-(6-methyl-4-(trifluoromethyl)pyridin-2-yl)-2,11-dioxo-1,2,3,3a,4,10,11,11a-octahydro-5H-benzo[b]pyrrolo[2,3-f][1,4]diazocin-5-yl)methyl)isoindolin-1-yl)acetonitrile]	930000
Cc1cc(C(F)(F)F)cc(N2C(=O)C[C@@H]3CN(Cc4cn5c(n4)CN(C(=O)/C=C/C(F)(F)F)CC5)c4c(Cl)cccc4N(C)C(=O)[C@H]32)n1 [Example 307, (3aR,11aS)-6-chloro-10-methyl-1-(6-methyl-4-(trifluoromethyl)pyridin-2-yl)-5-((7-((E)-4,4,4-trifluorobut-2-enoyl)-5,6,7,8-tetrahydroimidazo[1,2-a]pyrazin-2-yl)methyl)-1,3a,4,5,10,11a-hexahydro-2H-benzo[b]pyrrolo[2,3-f][1,4]diazocine-2,11(3H)-dione]	1.35e+06
C=CC(=O)N1CC(c2nnc(CN3C[C@H]4CC(=O)N(c5cc(C(F)(F)F)cc(C)n5)[C@@H]4C(=O)N(C)c4cccc(F)c43)o2)C1 [Example 103, (3aR,11aS)-5-((5-(1-acryloylazetidin-3-yl)-1,3,4-oxadiazol-2-yl)methyl)-6-fluoro-10-methyl-1-(6-methyl-4-(trifluoromethyl)pyridin-2-yl)-1,3a,4,5,10,11a-hexahydro-2H-benzo[b]pyrrolo[2,3-f][1,4]diazocine-2,11(3H)-dione]	1.6e+06
C=CC(=O)N1CC(N2CCN(CCN3C[C@H]4CC(=O)N(c5cc(C(F)(F)F)cc(C)n5)[C@@H]4C(=O)N(C)c4cc(F)cc(F)c43)CC2)C1 [Example 16, (3aR,11aS)-5-(2-(4-(1-acryloylazetidin-3-yl)piperazin-1-yl)ethyl)-6,8-difluoro-10-methyl-1-(6-methyl-4-(trifluoromethyl)pyridin-2-yl)-1,3a,4,5,10,11a-hexahydro-2H-benzo[b]pyrrolo[2,3-f][1,4]diazocine-2,11(3H)-dione]	130000
C=CC(=O)N1CC2(C1)N[C@H](C)CN(CCN1C[C@H]3CC(=O)N(c4cc(C(F)(F)F)cc(C)n4)[C@@H]3C(=O)N(C)c3cccc(F)c31)C2C (stereo partly drawn) [Example 37a, (3aR,11aS)-5-(2-((6R,9S/R)-2-acryloyl-6,9-dimethyl-2,5,8-triazaspiro[3.5]nonan-8-yl)ethyl)-6-fluoro-10-methyl-1-(6-methyl-4-(trifluoromethyl)pyridin-2-yl)-1,3a,4,5,10,11a-hexahydro-2H-benzo[b]pyrrolo[2,3-f][1,4]diazocine-2,11(3H)-dione]	1.48e+06
C=CC(=O)N1CCC(N2CCC(CN3C[C@H]4CC(=O)N(c5cc(C(F)(F)F)cc(C)n5)[C@@H]4C(=O)N(C)c4cccc(C)c43)CC2)C1 (mixture of isomers) [Example 95b, (3aR,11aS)-5-((1-((R/S)-1-acryloylpyrrolidin-3-yl)piperidin-4-yl)methyl)-6,10-dimethyl-1-(6-methyl-4-(trifluoromethyl)pyridin-2-yl)-1,3a,4,5,10,11a-hexahydro-2H-benzo[b]pyrrolo[2,3-f][1,4]diazocine-2,11(3H)-dione]	2.5e+06
C=C(CN(C)C)C(=O)N1CC(C2CCC(CN3C[C@H]4CC(=O)N(c5cc(C(F)(F)F)cc(C)n5)[C@@H]4C(=O)N(C)c4cccc(Cl)c43)CC2)C1 (stereo partly drawn) [Example 160, (3aR,11aS)-6-chloro-5-((4-(1-(2-((dimethylamino)methyl)acryloyl)azetidin-3-yl)cyclohexyl)methyl)-10-methyl-1-(6-methyl-4-(trifluoromethyl)pyridin-2-yl)-1,3a,4,5,10,11a-hexahydro-2H-benzo[b]pyrrolo[2,3-f][1,4]diazocine-2,11(3H)-dione]	2.3e+06
C=CC(=O)N1Cc2nc(CN3C[C@H]4CC(=O)N(c5cc(C(F)(F)F)cc(C)n5)[C@@H]4C(=O)N(C)c4cccc(Cl)c43)n(C)c2C1 [Example 242, (3aR,11aS)-5-((5-acryloyl-1-methyl-1,4,5,6-tetrahydropyrrolo[3,4-d]imidazol-2-yl)methyl)-6-chloro-10-methyl-1-(6-methyl-4-(trifluoromethyl)pyridin-2-yl)-1,3a,4,5,10,11a-hexahydro-2H-benzo[b]pyrrolo[2,3-f][1,4]diazocine-2,11(3H)-dione]	660000
C=CC(=O)N1CCN(CCCN2C[C@H]3CC(=O)N(c4cc(C(F)(F)F)cc(C)n4)[C@@H]3C(=O)N(C)c3cccc(C)c32)CC1C(F)(F)F (mixture of isomers) [Example 265b, (3aR,11aS)-5-(3-((R/S)-4-acryloyl-3-(trifluoromethyl)piperazin-1-yl)propyl)-6,10-dimethyl-1-(6-methyl-4-(trifluoromethyl)pyridin-2-yl)-1,3a,4,5,10,11a-hexahydro-2H-benzo[b]pyrrolo[2,3-f][1,4]diazocine-2,11(3H)-dione]	1.58e+06
C=C(CN(C)C)C(=O)N1CC(CN2C[C@H]3CC(=O)N(c4cc(C(F)(F)F)cc(C)n4)[C@@H]3C(=O)N(C)c3cccc(Cl)c32)C1 [Example 297, (3aR,11aS)-6-chloro-5-((1-(2-((dimethylamino)methyl)acryloyl)azetidin-3-yl)methyl)-10-methyl-1-(6-methyl-4-(trifluoromethyl)pyridin-2-yl)-1,3a,4,5,10,11a-hexahydro-2H-benzo[b]pyrrolo[2,3-f][1,4]diazocine-2,11(3H)-dione]	1.47e+06
C=CC(=O)N1CC(=O)N2CCN(CCN3C[C@H]4CC(=O)N(c5cc(C(F)(F)F)cc(C)n5)[C@@H]4C(=O)N(C)c4cccc(F)c43)CC2C1 (mixture of isomers) [Example 62a, (3aR,11aS)-5-(2-((R/S)-8-acryloyl-6-oxooctahydro-2H-pyrazino[1,2-a]pyrazin-2-yl)ethyl)-6-fluoro-10-methyl-1-(6-methyl-4-(trifluoromethyl)pyridin-2-yl)-1,3a,4,5,10,11a-hexahydro-2H-benzo[b]pyrrolo[2,3-f][1,4]diazocine-2,11(3H)-dione]	3.31e+06
C=CC(=O)N1CCOC[C@H]1c1ccc(CN2C[C@H]3CC(=O)N(c4cc(C(F)(F)F)cc(C)n4)[C@@H]3C(=O)N(C)c3cccc(C)c32)cn1 (racemic) [Example 324a, (3aR,11aS)-5-((6-((R/S)-4-acryloyl-morpholin-3-yl)pyr-idin-3-yl)methyl)-6,10-dimethyl-1-(6-methyl-4-(trifluoro-methyl)pyridin-2-yl)-1,3a,4,5,10, 11a-hexahydro-2H-benzo[b]pyrrolo [2,3-f][1,4]diazo-cine-2,11(3H)-dione]	150000
